# Measurements taken from the supplement of paper PMC10307832.
# What was measured:
# Assay in all cases: relative viability (nuclei count vs DMSO), 5 days (fraction); higher = more cells survive
# [1] = compound: C=CCn1c(=O)c2cnc(Nc3ccc(N4CCN(C)CC4)cc3)nc2n1-c1cccc(C(C)(C)O)n1 [Adavosertib] + N=C(N)NC(=N)NCCc1ccccc1 [Phenformin] (partner 250 µM)
# Method in brief: (§1)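 The day after seeding in 1536-well plates, lung cancer cell lines were treated by pin tool with a single drug, or with a fixed anchor-drug dose together with five library-drug doses (not always all listed) in √10 steps. After 5 days, a combined fix-and-stain solution (final 0.05% Triton X-100, 1% formaldehyde, 1 ug/ml Hoechst) was added. Nuclei counted on 4× images gave relative viability as treated counts over vehicle counts, reported as the median of duplicate plates.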
# [2] = compound: COc1nc(N)nc2c1ncn2[C@@H]1O[C@H](CO)[C@@H](O)[C@@H]1O [Nelarabine] + CC(C)C[C@H](NC(=O)[C@H](Cc1ccccc1)NC(=O)c1cnccn1)B(O)O [Bortezomib] (partner 0.002 µM)
# Method in brief: as §1
# [3] = compound: C=CCn1c(=O)c2cnc(Nc3ccc(N4CCN(C)CC4)cc3)nc2n1-c1cccc(C(C)(C)O)n1 [Adavosertib] + CC(=O)Nc1cccc(-n2c(=O)n(C3CC3)c(=O)c3c(Nc4ccc(I)cc4F)n(C)c(=O)c(C)c32)c1 [Trametinib] (partner 0.02 µM)
# Method in brief: as §1
# [4] = compound: COc1nc(N)nc2c1ncn2[C@@H]1O[C@H](CO)[C@@H](O)[C@@H]1O [Nelarabine] + O=C(CCCCCCC(=O)Nc1ccccc1)NO [Vorinostat] (partner 1 µM)
# Method in brief: as §1
Cell Line,relative viability ([1]; first compound 0.01 µM),relative viability ([1]; first compound 0.03162 µM),relative viability ([1]; first compound 0.1 µM),relative viability ([1]; first compound 0.3162 µM),relative viability ([2]; first compound 0.01 µM),relative viability ([2]; first compound 0.03162 µM),relative viability ([2]; first compound 0.3162 µM),relative viability ([2]; first compound 1 µM),relative viability ([3]; first compound 0.03162 µM),relative viability ([3]; first compound 0.1 µM),relative viability ([3]; first compound 0.3162 µM),relative viability ([4]; first compound 0.01 µM),relative viability ([4]; first compound 0.03162 µM),relative viability ([4]; first compound 0.1 µM),relative viability ([4]; first compound 0.3162 µM),relative viability ([4]; first compound 1 µM),relative viability ([2]; first compound 0.1 µM),relative viability ([3]; first compound 0.01 µM)
NCI-H2228,0.252,0.27,0.257,0.243,1.45,1.52,1.35,1.03,0.498,0.465,0.404,0.634,0.569,0.387,0.495,0.792,–,–
NCI-H650,0.422,0.498,0.458,0.377,1.13,0.703,0.977,0.897,1.01,0.942,1.07,0.415,0.376,0.4,0.479,0.499,0.758,0.935
NCI-H1651,0.3,0.354,0.31,0.237,1,0.873,0.977,0.817,0.85,0.864,0.871,0.487,0.591,0.525,0.566,0.553,1.02,0.841
NCI-H1993,0.527,0.537,0.475,0.589,1.25,1.21,1.13,1.04,0.449,0.535,0.561,0.742,0.728,0.736,0.592,0.694,1.27,0.42
HCC-827,0.391,0.434,0.46,0.387,1.09,0.956,0.914,0.783,0.567,0.492,0.522,0.595,0.748,0.639,0.721,0.64,1.02,0.533
SW 1573,0.384,0.564,0.408,0.324,1.63,1.12,1.25,1.1,0.564,0.605,0.638,1.05,0.81,0.806,0.628,0.776,1.18,0.525
COR-L 105,0.558,0.443,0.467,0.409,1.02,0.912,0.678,0.979,0.463,0.48,0.347,0.805,0.887,0.952,1.12,0.726,0.683,0.436
BEN,0.277,0.261,0.299,0.25,0.915,0.652,1.19,0.969,1,1.27,1.18,0.662,0.575,0.592,0.609,0.618,0.887,1.02
HARA,0.513,0.476,0.548,0.361,1.19,1.08,1.21,1.02,0.729,0.75,0.611,0.658,0.543,0.532,0.581,0.544,1.16,0.696
NCI-H1437,0.388,0.308,0.275,0.285,0.678,0.523,0.479,0.444,0.545,0.484,0.414,0.992,0.946,0.831,0.878,0.808,0.553,0.546
HCC-44,0.255,0.237,0.192,0.181,1.05,0.845,0.924,0.924,1.05,1.19,1.12,1.11,1.02,1.05,1.01,1.07,0.866,1.08
COR-L23,0.433,0.465,0.442,0.267,1.33,1.08,0.942,0.983,0.577,0.565,0.251,0.471,0.416,0.511,0.427,0.456,1.08,0.622
201T,0.453,0.441,0.467,0.453,1.11,1.02,1.15,1.08,0.707,0.736,0.718,1.2,1.04,0.999,1.03,0.979,1.12,0.657
NCI-H23,0.732,0.759,0.838,0.585,1.38,0.97,0.957,1.1,0.395,0.339,0.226,0.737,0.604,0.548,0.615,0.584,1.13,0.363
EKVX,0.249,0.238,0.227,0.234,1.35,0.853,1.25,1.14,0.34,0.377,0.401,0.81,0.667,0.585,0.817,0.788,1.05,0.327
NCI-H1915,0.364,0.367,0.388,0.365,1.25,0.871,0.975,0.96,0.338,0.322,0.33,0.599,0.544,0.488,0.573,0.57,1.04,0.329
LU99A,0.963,0.808,0.982,0.826,1.33,1.09,1.23,1.33,0.61,0.634,0.464,0.615,0.417,0.579,0.467,0.39,1.15,0.624
LCLC-103H,0.347,0.372,0.319,0.3,1.36,1.05,1.13,1.1,0.688,0.668,0.7,0.905,0.76,0.795,0.856,0.808,1.01,0.641
